Results from US12016849B2, “Magnesium picolinate compositions and methods of use” (Bonafide Health, LLC, priority 2016, dated 2024).

Legend:
[1] = Stability of magnesium picolinate (hygroscopicity, storage, light); assay type: physicochemical
From the text: Magnesium picolinate compositions of the invention were stable during storage at room temperature.

[2] = Magnesium and picolinic acid AUC0→∞, double-blind clinical study; assay type: in vivo; details: 500 mg magnesium picolinate vs control 916 mg picolinic acid and 90 mg magnesium
Experimental: (§1) In a double-blind clinical study, 30 subjects are divided into two groups (n=15). The control group receives a supplement containing 916 mg picolinic acid and 90 mg of magnesium. The trial group receives a supplement containing 500 mg of magnesium picolinate (46 mg of magnesium and 454 mg of picolinate), or one-half the total dose of picolinate and magnesium of the control group. Magnesium and picolinic acid AUC0→∞ (ng·h/mL) are measured in each subject. The mean magnesium and picolinic acid AUC0→∞ for the trial group are between 80-120% of the control group at each time point.

[3] = Cerebrospinal fluid (CSF) levels of magnesium and picolinic acid, double-blind clinical study; assay type: in vivo; details: 500 mg magnesium picolinate vs control 916 mg picolinic acid and 90 mg magnesium; four and eight hours, spinal tap
Experimental: In a double-blind clinical study, 30 subjects are divided into two groups (n=15). The control group receives a supplement containing 916 mg picolinic acid and 90 mg of magnesium. The trial group receives a supplement containing 500 mg of magnesium picolinate (46 mg of magnesium and 454 mg of picolinate), or one-half the total dose of picolinate and magnesium of the control group. CSF levels of picolinic acid (ng/mL) and serum levels of magnesium (ng/mL) are measured at four hours and eight hours via spinal tap. The mean CSF magnesium levels for the trial group are between 80-120% of the control group at each time point. The mean CSF picolinic acid levels for the trial group are between 80-120% of the control group at each time point. Thus, magnesium picolinate provides 80-120% of the brain penetration of magnesium, and 80-120% of the brain penetration of picolinic acid, relative to twice the dose of magnesium and picolinic acid alone.

[4] = Total magnesium in rat sera, liver and brain by atomic absorption spectroscopy; assay type: in vivo, Wistar rats; details: rats, 500 mg elemental Mg/kg diet, oral, 8 weeks; compared to magnesium oxide and control
Experimental: (§2) Seven male Wistar rats per treatment arm (age: 8 week, weight: 180±20 g) were housed in a controlled environment with a 12:12-h light-dark cycle at 22° C. and were provided with rat chow and water ad libitum. Following a 7-day acclimatization period, animals were randomly be divided into the following groups: • 1. Control (no treatment); • 2. Control+MgO (500 mg elemental Mg/kg diet), • 3. Control+MgPic (500 mg elemental Mg/kg diet), • 4. HFD (fed with high fat diet); • 5. HFD+MgO (500 mg elemental Mg/kg diet), • 6. HFD+MgPic (500 mg elemental Mg/kg diet).
(§3) The MgPic administered was prepared in accordance with the methods of the inventions described herein. All treatments were administered daily as an oral supplement per day for 8 weeks. […] The rats were subjected to several study protocols during the treatment period.
Laboratory Analyses—Following the treatment period, plasma was extracted and used for the determination of glucose, insulin, visceral fat, magnesium, and leptin concentrations, which was performed with an automatic analyzer (Samsung). Brain antioxidant enzyme catalase (CAT) and glutathione peroxidase (GSH-Px) were measured using a commercially available assay kit (Cayman Chemical, Ann Arbor, Mich., USA) according to the manufacturer's instructions. […] Morris Water Maze—The water maze test was performed according to methods known to those of skill in the art. The water maze was conducted in a large circular black pool (160 cm in diameter) containing water (temperature at 24±2° C.) that had been colored with a nontoxic black dye to contrast the rat. A 12-cm-diameter black-colored round platform was placed 1.5 cm below the water surface. All of the rats were placed in the water maze room 1 h before the water maze trial daily. […] The swimming pathway and latency in locating the hidden platform was recorded for each trial. […] All samples were processed to produce clear digests, and the total magnesium in each sample was measured by flame AAS (Perkin Elmer) using established and fully verified methods. […]

[5] = test system: male Wistar rats; assay: Laboratory analyses after 8 weeks of treatment (glucose, insulin, visceral fat, leptin); assay type: in vivo; details: 500 mg elemental Mg/kg diet, oral
Experimental: as §2, §3
Laboratory Analyses—Following the treatment period, plasma was extracted and used for the determination of glucose, insulin, visceral fat, magnesium, and leptin concentrations, which was performed with an automatic analyzer (Samsung). Brain antioxidant enzyme catalase (CAT) and glutathione peroxidase (GSH-Px) were measured using a commercially available assay kit (Cayman Chemical, Ann Arbor, Mich., USA) according to the manufacturer's instructions. […] Morris Water Maze—The water maze test was performed according to methods known to those of skill in the art. The water maze was conducted in a large circular black pool (160 cm in diameter) containing water (temperature at 24±2° C.) that had been colored with a nontoxic black dye to contrast the rat. A 12-cm-diameter black-colored round platform was placed 1.5 cm below the water surface. All of the rats were placed in the water maze room 1 h before the water maze trial daily. The rats were given a maximum time of 60 s to find the hidden platform, and they were allowed to remain on the platform for 30 s. […] The rats were given a daily session of four trials per day for six consecutive days. The swimming pathway and latency in locating the hidden platform was recorded for each trial. On the seventh day, the time taken to reach the quadrant and the number of crossings of the target quadrant was tested with the platform removed. […] It is noted that rats fed a high fat diet experience diminished memory function. […] Atomic Absorption Spectroscopy—Rat sera, liver, brains were removed and the cerebral cortex and hippocampus were dissected for analysis after the treatment period. The tissues were stored at −70° C. until analysis using atomic absorption spectroscopy (AAS). […] All samples were processed to produce clear digests, and the total magnesium in each sample was measured by flame AAS (Perkin Elmer) using established and fully verified methods. […]

[6] = test system: Brain antioxidant enzyme catalase (CAT); assay: Brain antioxidant enzyme activity, commercial assay kit; assay type: in vivo, Wistar rats; details: rats, 500 mg elemental Mg/kg diet, 8 weeks; compared to magnesium oxide
Experimental: as §2
(§4) The MgPic administered was prepared in accordance with the methods of the inventions described herein. […]
(§5) Laboratory Analyses—Following the treatment period, plasma was extracted and used for the determination of glucose, insulin, visceral fat, magnesium, and leptin concentrations, which was performed with an automatic analyzer (Samsung). Brain antioxidant enzyme catalase (CAT) and glutathione peroxidase (GSH-Px) were measured using a commercially available assay kit (Cayman Chemical, Ann Arbor, Mich., USA) according to the manufacturer's instructions. […] The swimming pathway and latency in locating the hidden platform was recorded for each trial. […] All samples were processed to produce clear digests, and the total magnesium in each sample was measured by flame AAS (Perkin Elmer) using established and fully verified methods. […]

[7] = test system: glutathione peroxidase (GSH-Px); assay: as above; assay type: in vivo, Wistar rats; details: rats, 500 mg elemental Mg/kg diet, 8 weeks; compared to magnesium oxide
Experimental: as §2, §4, §5

[8] = test system: male Wistar rats; assay: Morris water maze; assay type: in vivo
Experimental: as §2, §4, §5

[9] = Serum levels of magnesium and picolinic acid, double-blind clinical study; assay type: in vivo; details: 500 mg magnesium picolinate vs control 916 mg picolinic acid and 90 mg magnesium; at 1, 4, 6 and 8 hours
Experimental: as §1, with “Serum levels of” for “Magnesium and”, “(ng/mL) and serum levels of magnesium (ng/mL)” for “AUC0→∞ (ng·h/mL)”, “at one hour, four hours, six hours, and eight hours.” for “in each subject.”, “mean serum” for “mean”, “levels” for “and picolinic acid AUC0→∞”, “point. The mean serum picolinic acid levels for the trial group are between 80-120% of the control group at each time point.” for “point.”

[10] = Solubility of the isolated product; assay type: physicochemical
Experimental: Picolinic acid (3.7 g, 30 mmol) and magnesium acetate tetrahydrate (3.2 g, 15 mmol) were suspended in 25 mL of water. The slurry was stirred and heated at reflux overnight and then filtered to isolate 1.7 grams of crystalline MgPic. The remaining filtrate was cooled and evaporated to dryness, providing an additional 2.2 grams of amorphous MgPic with traces of residual acetate. The acetate was removed by washing the solid with ethanol to provide a 96% overall yield of MgPic (crystalline and amorphous). The ^1H-NMR spectrum of the product (FIG. 2) is consistent with the spectrum of a metal picolinate salt. […] The product contained acceptable trace levels of barium and other heavy metals of less than 200 ppm of each element tested. As such, embodiments of a MgPic composition may comprise less than about 200 ppm of barium and/or other heavy metals. In some embodiments, these compositions may comprise less than about 150, less than about 100, less than 50, or less than 20 ppm of barium and/or other heavy metals.
Picolinic acid and magnesium oxide (0.5 equiv.) were added to water, giving a white, stirrable slurry. The slurry was heated to 95-100° C. for 3 hours, and more water was added, tripling the initial amount of water [note: the procedure was based on the preparation of a related magnesium salt using magnesium oxide, in which the initial slurry completely dissolved at 80-90° C. […]

[11] = Magnesium and picolinic acid Cmax and Tmax, double-blind clinical study; assay type: in vivo; details: 500 mg magnesium picolinate vs control 916 mg picolinic acid and 90 mg magnesium
Experimental: as §1, with “Cmax (ng/mL) and Tmax (minutes)” for “AUC0→∞ (ng·h/mL)”, “subject. […] Thus, magnesium picolinate provides 80-120% of the maximum serum concentration of magnesium and picolinic acid relative to twice the dose of magnesium alone, or relative to twice the dose of picolinic acid alone.” for “subject.”, “Tmax” for “AUC0→∞”, “50-80%” for “80-120%”, “point. Thus, magnesium picolinate delivers the maximum amount of bioavailable magnesium and picolinic acid in 50-80% less time relative to twice the dose of magnesium alone, or relative to twice the dose of picolinic acid alone.” for “point.”

[12] = compared to control specimens and those given magnesium oxide

O=C(O)c1ccccn1 [amorphous solid, magnesium picolinate]
signs of degradation ([1]; after 30 days at 75% relative humidity and 40° C.): no signs of degradation
signs of degradation ([1]; after 60 days at 40% relative humidity and 25° C.): no signs of degradation
hygroscopicity ([1]; as measured by weight): not hygroscopic
stability / color change on exposure to light [1]: did not change color

O=C(O)c1ccccn1 [MgPic, magnesium picolinate]
stability during storage ([1]; 25° C./40% relative humidity): stable
stability during storage ([1]; 40° C./75% relative humidity): stable
stability / color change on exposure to light ([1]; listed as MgPic composition): stable on exposure to light
stability during storage ([1]; room temperature): stable
mean magnesium AUC0→∞, relative to control group [2]: 80-120%
mean picolinic acid AUC0→∞, relative to control group [2]: 80-120%
mean CSF magnesium levels, relative to control group [3]: 80-120%
mean CSF picolinic acid levels, relative to control group [3]: 80-120%
magnesium levels in brain (FIG. 4A-4C) [4]: substantially improved magnesium levels
magnesium levels in liver (FIG. 4A-4C) [4]: substantially improved magnesium levels
magnesium levels in serum (FIG. 4A-4C) [4]: substantially improved magnesium levels
glucose (FIG. 4D-4E) [5, 12]: reduced amounts
insulin (FIG. 4D-4E) [5, 12]: reduced amounts
leptin secretion (FIG. 4G) ([5]; compared to magnesium oxide): unexpectedly superior reduction of leptin secretion
visceral fat (FIG. 4F) ([5]; compared to magnesium oxide): unexpectedly improved reduction of visceral fat
brain antioxidant enzyme (CAT) activity (FIG. 7A) [6]: superior improvements of increasing brain antioxidant enzyme (CAT) activity
brain antioxidant enzyme (GSH-Px) activity (FIG. 7B) [7]: superior improvements of increasing brain antioxidant enzyme (GSH-Px) activity
memory function: time taken to reach the quadrant with the hidden platform (FIG. 5) ([8]; rats fed a high fat diet and rats fed the control diet, 500 mg elemental Mg/kg diet): improved memory function
memory function (FIG. 6) ([8]; rats fed a high fat diet, compared to rats administered magnesium oxide): improvements
mean serum magnesium levels, relative to control group [9]: 80-120%
mean serum picolinic acid levels, relative to control group [9]: 80-120%
solubility in water ([10]; product of Example 2, clear and colorless solution): readily soluble in water
solubility in ethanol/water ([10]; product of Example 13): soluble in ethanol/water
mean magnesium Cmax, relative to control group [11]: 80-120%
mean magnesium Tmax, relative to control group [11]: 50-80%
mean picolinic acid Cmax, relative to control group [11]: 80-120%
mean picolinic acid Tmax, relative to control group [11]: 50-80%
